Calls of active or inactive are those of the source. The calls are words filed in the database; no cut-off is given here.
Legend:
K652 = test: Inhibition of P-gp-mediated rhodamine 123 efflux in doxorubicin-resistant human […] cells at 100 uM treated for 1 hr measured after washout by FACS flow cytometry relative to verapamil; format: cell-based
[1] = Noncompetitive inhibition of P-gp assessed as reduction in P-gp-associated ATPase activity by Pgp-GloTM Assay
[2] = Competitive inhibition of P-gp assessed as P-gp-associated ATPase activity at 10 uM by Pgp-GloTM Assay

| inhibition [1] | inhibition [2] | Structure (SMILES) | fold change (FC) (K652) |
| --- | --- | --- | --- |
|  |  | CN(C)[C@@H](CC(C)(C)C)C(=O)N1Cc2ccccc2C[C@H]1C(=O)NCCCC[C@@H](NC(=O)[C@@H]1Cc2ccccc2CN1C(=O)[C@H](CC(C)(C)C)N(C)C)C(N)=O | 2 |
| Active | Active | CN(C)[C@@H](CC(C)(C)C)C(=O)N1Cc2ccccc2C[C@H]1C(=O)NCCCC[C@H](NC(=O)[C@@H]1Cc2ccccc2CN1C(=O)[C@H](CC(C)(C)C)N(C)C)C(N)=O | 2 |

From ChEMBL document CHEMBL2034976, “Relationship between structure and P-glycoprotein inhibitory activity of dimeric peptides related to the Dmt-Tic pharmacophore” (Bioorg Med Chem Lett, 2012)
